According to ChEMBL document CHEMBL1201862, “PubChem BioAssay data set” (2004):
Active and inactive are the calls of the source.

Columns and labels:
Beta-lactamase [1] = target: Beta-lactamase (Pseudomonas aeruginosa, UniProt Q79MP6);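 also: biochemical dose-response test of metallo-beta-lactamase enzyme inhibition, read out by epi-absorbance; purified recombinant IMP-1 metallo-beta-lactamase with nitrocefin as substrate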
Beta-lactamase [2] = target: Beta-lactamase (Salmonella choleraesuis (strain SC-B67), UniProt Q5J463)
[3] = target: T1, Low molecular weight phosphotyrosine protein phosphatase (Homo sapiens, UniProt P24666); assay type: functional; settings: read-out: IC50_Mean;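 also: Dose-response confirmation assay measuring inhibition of LMPTP enzyme activity by fluorescence intensity read-out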
T1 sequence (P24666 whole entry): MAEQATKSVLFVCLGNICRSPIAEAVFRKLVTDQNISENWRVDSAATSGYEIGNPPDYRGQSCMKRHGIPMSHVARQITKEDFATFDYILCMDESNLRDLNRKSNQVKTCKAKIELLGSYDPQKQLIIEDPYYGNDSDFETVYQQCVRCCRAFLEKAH

Albumin = Albumin (Bos taurus, UniProt P02769); experiment: Counterscreen for inhibitors of T-cell receptor (TCR)-CD3 interaction: Fluorescence-based biochemical high throughput dose response assay to identify inhibitors of T-cell receptor (TCR)-CD3 interaction using a TAMRA-labeled BSA probe.; assay type: functional
[4] = human group III sPLA2 inhibitors, dose response, biochemical, QFRET, IC50 (AID 743457);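 also: green fluorescence rise as the enzyme cleaves BODIPY PC-A2 in liposomes; potency for inhibition of the enzyme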
[5] = CEM21 lymphoblast cell cytotoxicity, dose response, cytotoxicity control for viral fusion inhibitor project, CellTiter-Glo luminescence, cherry-picked (AID 652042); assay type: functional, cell-based;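 also: potency for signal decrease meaning cytotoxicity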
[6] = inhibitors of clade B AD8 Env fusion, dose response, cell-based, cherry-pick (AID 652062); assay type: functional;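 also: luciferase signal from cell-cell fusion driven by HIV-1 clade B AD8 Env; potency is for inhibitors of fusion seen as a drop in luminescence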
[7] = inhibitors of HIV Env-driven cell fusion, dose response, cherry-pick (AID 652057); assay type: functional, cell-based
[8] = target: T2, COUP transcription factor 2 (Homo sapiens, UniProt P24468); experiment: Luminescence-based cell-based high throughput dose response assay to identify inhibitors of COUP-TFII (NR2F2).; assay type: functional;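 also: HEK293 cells transiently cotransfected with COUP-TFII expression vector and reporter; luciferase reporter luminescence driven by COUP-TFII from the pX2-168 reporter plasmid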
T2 sequence (P24468 whole entry): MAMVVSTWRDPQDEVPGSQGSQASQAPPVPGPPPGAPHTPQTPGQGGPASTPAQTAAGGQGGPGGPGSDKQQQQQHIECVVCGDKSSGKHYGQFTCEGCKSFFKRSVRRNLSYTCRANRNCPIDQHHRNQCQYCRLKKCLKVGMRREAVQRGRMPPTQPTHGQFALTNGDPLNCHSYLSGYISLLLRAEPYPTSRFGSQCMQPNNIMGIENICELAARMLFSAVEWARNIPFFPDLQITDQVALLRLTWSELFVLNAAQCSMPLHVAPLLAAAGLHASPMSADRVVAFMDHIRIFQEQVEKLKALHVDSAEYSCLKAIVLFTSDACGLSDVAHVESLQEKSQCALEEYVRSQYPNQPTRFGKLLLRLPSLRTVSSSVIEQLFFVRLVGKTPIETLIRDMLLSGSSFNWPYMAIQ

Major prion protein = Major prion protein (Homo sapiens, UniProt P04156); assay type: functional, cell-based
cells [9] = experiment: cells
[10] = target: T3, Trace amine-associated receptor 1 (Homo sapiens, UniProt Q96RJ0); experiment: Counterscreen for agonists of the human trace amine associated receptor 1 (hTAAR1): Fluorescence-based cell-based high throughput dose response assay to identify hTAAR1 agonist that also desensitize TAAR1 receptor response.; assay type: functional
T3 sequence (Q96RJ0 whole entry): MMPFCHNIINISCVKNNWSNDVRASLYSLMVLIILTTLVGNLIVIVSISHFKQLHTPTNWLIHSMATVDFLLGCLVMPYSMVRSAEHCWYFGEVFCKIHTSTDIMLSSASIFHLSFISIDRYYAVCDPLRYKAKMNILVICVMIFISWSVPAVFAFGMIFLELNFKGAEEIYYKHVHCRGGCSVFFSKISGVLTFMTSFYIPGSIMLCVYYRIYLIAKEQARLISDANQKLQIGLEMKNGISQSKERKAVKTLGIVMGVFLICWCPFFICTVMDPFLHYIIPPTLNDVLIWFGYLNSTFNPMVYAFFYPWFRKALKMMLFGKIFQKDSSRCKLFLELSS

[11] = HepG2 cell cytotoxicity, dose response, cytotoxicity control, plate reader, cherry-pick, antagonist series (AID 743416); assay type: functional, cell-based
[12] = MC4R antagonists, dose response, counter-screen for LGR2 antagonist project, cell-based, plate reader, cherry pick (AID 743444); assay type: functional;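 also: transfected HEK 293 cells stimulated with alpha-MSH peptide; potency of inhibitors of the alpha-MSH evoked signal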
cells [13] = assay type: functional, cell-based
[14] = HEK293 cell cytotoxicity, dose response, cytotoxicity control, plate reader, cherry-picked samples (AID 743446); assay type: functional, cell-based
cells [15] = assay type: functional, cell-based; remark: listed apart in the source
[16] = target: T3, Trace amine-associated receptor 1; experiment: Fluorescence-based cell-based high throughput dose response assay to identify agonists of the human trace amine associated receptor 1 (TAAR1).; assay type: functional
[17] = ZM109 Env clade C HIV-1 fusion inhibitors, dose response, HeLa effector, CEM target cells, luciferase, cherry-pick (AID 652058); assay type: functional, cell-based
[18] = target: Voltage-dependent T-type calcium channel subunit alpha-1H (Homo sapiens, UniProt O95180); assay type: functional;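 also: channel activity triggered by adding a high calcium stimulation buffer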
[19] = off-target signal loss in HeLa-CEM21 co-culture – HeLa F-luc CTL cells, cherry-picked, counter-screen for HIV-1 Env fusion inhibitor project, dose response (AID 652040); assay type: functional, cell-based;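 also: potency for signal decrease marking cytotoxic or nonspecific inhibition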
[20] = A549 cell cytotoxicity, dose response, cytotoxicity control, plate reader, cherry-pick, antagonist series (AID 743412); assay type: functional, cell-based
[21] = LGR2 antagonists, dose response, cell-based, HEK293, CRE-luciferase reporter, cherry pick, set 2 (AID 743343); assay type: functional;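 also: transfected cells were stimulated with diluted bursicon conditioned medium after compound addition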
[22] = target: T4, Zinc finger protein mex-5 (Caenorhabditis elegans, UniProt Q9XUB2); experiment: MEX-5/TCR-2 RNA interaction inhibitors, dose response, biochemical, C. elegans, fluorescence polarization (AID 1960)
T4 sequence (Q9XUB2 whole entry): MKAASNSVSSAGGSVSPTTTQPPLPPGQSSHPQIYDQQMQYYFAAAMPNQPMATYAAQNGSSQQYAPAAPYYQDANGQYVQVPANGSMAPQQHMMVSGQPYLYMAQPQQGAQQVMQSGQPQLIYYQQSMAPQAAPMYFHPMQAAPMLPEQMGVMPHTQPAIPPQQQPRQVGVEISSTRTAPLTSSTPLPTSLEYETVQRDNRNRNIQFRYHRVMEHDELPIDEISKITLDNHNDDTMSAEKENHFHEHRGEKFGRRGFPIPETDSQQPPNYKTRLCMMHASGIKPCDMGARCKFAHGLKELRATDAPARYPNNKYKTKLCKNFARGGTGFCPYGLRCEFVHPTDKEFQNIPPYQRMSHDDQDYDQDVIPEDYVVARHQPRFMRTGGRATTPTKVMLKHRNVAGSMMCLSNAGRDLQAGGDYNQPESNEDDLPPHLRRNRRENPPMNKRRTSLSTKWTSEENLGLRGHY

[23] = target: T5, RNA-binding protein pos-1 (Caenorhabditis elegans, UniProt G5EF15); experiment: inhibitors of POS-1/mex-3 RNA binding, dose response, biochemical, fluorescence polarization (AID 1964);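 also: purified POS-1 fused to maltose binding protein made in E. coli; potency of compounds blocking POS-1 binding to fluorescent RNA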
T5 sequence (G5EF15 whole entry): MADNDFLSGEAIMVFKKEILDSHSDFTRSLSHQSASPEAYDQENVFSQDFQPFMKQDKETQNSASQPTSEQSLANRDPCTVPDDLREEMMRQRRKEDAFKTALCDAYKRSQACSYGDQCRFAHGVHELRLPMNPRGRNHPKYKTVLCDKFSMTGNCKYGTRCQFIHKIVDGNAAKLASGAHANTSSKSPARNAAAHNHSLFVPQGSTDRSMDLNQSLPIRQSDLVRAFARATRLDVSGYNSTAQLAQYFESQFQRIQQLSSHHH

SMILES: CCn1c(=S)sc2c(=O)n(CC(=O)Nc3ccccc3C(F)(F)F)c(C)nc21
- IC50 (Beta-lactamase [1]): 22.7 µM (inactive)
- IC50 (Beta-lactamase [2]): > 59.6 µM (inactive)
- IC50 [3]: 16.2 µM (active)

SMILES: O=C(NNC(=O)c1c(O)c2ccccc2[nH]c1=O)c1ccccc1
- IC50 (Albumin): > 94.1 µM (inactive)

SMILES: O=C(CNc1cccc(Cl)c1)NNC(=S)NCc1ccccc1
- IC50 [4]: > 122 µM (inactive)

SMILES: N#C[C@H]1[C@@H](c2ccc(-c3ccccc3)cc2)[C@@H](CO)N1S(=O)(=O)Cc1ccccc1
- AC50 [5]: 41.5 µM (active)
- AC50 [6]: 4.94 µM (active)
- AC50 [7]: 1.93 µM (active)

SMILES: CC(=O)N[C@@H](C)c1nc2ccccc2n1CCCN1CCN(c2nc(-c3ccc(C)cc3)cs2)CC1
- IC50 [8]: 6.84 µM (active)

SMILES: O=C(O)c1ccccc1SCc1csc(-c2ccccc2)n1
- IC50 (Major prion protein): 6.49 µM (active)
- IC50 (cells [9]): > 138 µM (inactive)

SMILES: COc1ccccc1CCn1cnc(-c2ccccc2OC)c1C(C)C
- IC50 [10]: 3.82 µM (active)
- AC50 [11]: 29.8 µM (active)
- AC50 [12]: 29.4 µM (active)
- EC50 (cells [13]): > 29.9 µM (inactive)
- AC50 [14]: > 52 µM (inactive)
- IC50 (cells [15]): 11.8 µM (inactive)
- EC50 [16]: 5.14 µM (active)

SMILES: Clc1ccc(-n2ncc3c(NCCN4CCOCC4)ncnc32)cc1
- IC50 [8]: 35.7 µM (inactive)

SMILES: Cc1ccc(S(=O)(=O)Nc2ccc3c(c2)C(=O)N([C@H](C)CO)C[C@@H](C)[C@@H](CN(C)Cc2ccc(-c4ccccc4)cc2)O3)cc1
- AC50 [17]: 16.6 µM (active)
- AC50 [5]: 21.8 µM (active)
- AC50 [6]: 17.4 µM (active)
- AC50 [7]: 18 µM (active)

SMILES: COc1ccc(Cl)cc1C(=O)NN=C(S)NC1CCCC1
- IC50 [4]: > 122 µM (inactive)

SMILES: CCOc1ccc(C(=O)C2=C(O)C(=O)N(c3ccccn3)C2c2ccccc2F)c(C)c1 (centres undefined)
- IC50 (Major prion protein): 5.58 µM (active)
- IC50 (cells [9]): > 138 µM (inactive)

SMILES: Clc1ccc(C(c2nnnn2CCc2ccccc2)N2CCSCC2)cc1 (centres undefined)
- AC50 [17]: 7.63 µM (active)
- EC50 [18]: 8.87 µM (active)
- AC50 [5]: 62.2 µM (active)
- AC50 [6]: 1.14 µM (active)
- AC50 [19]: 4.45 µM (active)
- AC50 [7]: 2 µM (active)

SMILES: Clc1ccc(CCNCc2ccncc2)c(Cl)c1
- IC50 [10]: 6.77 µM (active)
- EC50 (cells [13]): > 29.9 µM (inactive)
- IC50 (cells [15]): > 29.9 µM (inactive)
- EC50 [16]: 2.01 µM (active)

SMILES: CCOc1ccc([N+](=O)[O-])cc1CNCCc1ccccc1
- IC50 [10]: 4.18 µM (active)
- EC50 (cells [13]): > 29.9 µM (inactive)
- IC50 (cells [15]): > 29.9 µM (inactive)
- EC50 [16]: 0.337 µM (active)

SMILES: O=C(Nc1ccc(N2CCN(C(=O)c3ccccc3)CC2)c(Cl)c1)c1ccc(Br)o1
- AC50 [11]: 35 µM (active)
- AC50 [20]: 34.9 µM (active)
- AC50 [12]: 14.9 µM (active)
- AC50 [21]: 16.6 µM (active)
- AC50 [14]: 21.5 µM (active)

SMILES: CCCCCCn1c(=O)[nH]c2nc3cc(N)ccc3nc2c1=O
- IC50 (Beta-lactamase [1]): > 59.6 µM (inactive)
- EC50 [22]: > 300 µM (inconclusive)
- IC50 (Beta-lactamase [2]): 9.7 µM (active)
- EC50 [23]: > 300 µM (inconclusive)
